Reference: patent US20260256792A1, “TREATMENT OF CHRONIC SPONTANEOUS URTICARIA BY ADMINISTERING (R)-2-[3-[4-AMINO-3-(2-FLUORO-4-PHENOXY-PHENYL)PYRAZOLO[3,4-D]PYRIMIDIN-1-YL]PIPERIDINE-1-CARBONYL]-4-METHYL-4-[4-(OXETAN-3-YL)PIPERAZIN-1-YL]PENT-2-ENENITRILE” (priority 2023, published 2026)

Tested on: moderate-to-severe chronic spontaneous urticaria (CSU)
Assay: Phase 2 CSU study: urticaria activity score over 7 days (UAS7)
Type: in vivo, human
Design: key to UAS7 Median / UAS7 Change from baseline Median / UAS7 change from baseline, Q1 / UAS7 change from baseline, Q3 / UAS7 change from baseline, Max / UAS7 Change from baseline LS Mean (SE): UAS7 points; daily UAS score ranges 0–6 points/day, over 7 days
Source text: The study comprises a 12 week, randomized, double-blind, placebo-controlled, multi-center, dose-ranging efficacy and safety phase, followed by a 40 week open label extension (OLE) phase (see FIG. 1). The study consists of three phases and an optional OLE phase. […] Clinically, CSU is characterized by the spontaneous and recurrent appearance of pruritic hives. The proposed primary endpoints were the UAS7 at Week 12 in EU and EU reference countries and the ISS7 in the US. Regardless of where a participant was from, all assessments were the same. The UAS7 score is a composite score containing both the HSS7 and the ISS7. This allowed a global assessment of the two key components of urticaria: hives and itch. […] The UAS is a validated PRO measure. […] The daily UAS scores range from 0 to 6 point/day. […] Patients were to complete the UAS using the e-diary. […] The following secondary endpoints were to be analyzed using the same approach as for the primary endpoint: • Change from baseline in UAS7 at Week 4 • Change from baseline in UAS7 at Week 12 (for US and US reference countries) • Change from baseline in ISS7 at Week 12 (except US and US reference countries) • Change from baseline in HSS7 at Week 12 The following responder secondary endpoints were to be analyzed using the Cochran-Mantel-Haenszel test adjusted by region: • Proportion of participants with UAS7<6 at Week 12 • Proportion of participants with UAS7=0 at Week 12 Participants who received selected prohibited medications and/or rescue medications were to be considered as non-responders for time points after the medication usage. For other participants, all available data including those collected during the off-treatment period were to be used to determine the responder/non-responder status. Missing data were to be considered as non-responders.

[1] = Week 1, 400 mg QPM, Prior Omalizumab Use
[2] = Week 1, 400 mg QPM, omalizumab-naive participants
[3] = Week 1, 400 mg TID, ITT population
[4] = Week 1, 400 mg TID, Omalizumab-Naïve
[5] = Week 1, 400 mg TID, Prior Omalizumab Use
[6] = Week 1, 400 mg TID, omalizumab-naive participants
[7] = Week 2, 400 mg BID, ITT population
[8] = Week 2, 400 mg BID, Omalizumab-Naïve
[9] = Week 2, 400 mg BID, Prior Omalizumab Use
[10] = Week 2, 400 mg BID, omalizumab-naive participants
[11] = Week 2, 400 mg QPM, ITT population
[12] = Week 2, 400 mg QPM, Omalizumab-Naïve
[13] = Week 2, 400 mg QPM, Prior Omalizumab Use
[14] = Week 2, 400 mg QPM, omalizumab-naive participants

CC(C)(C=C(C#N)C(=O)N1CCC[C@@H](n2nc(-c3ccc(Oc4ccccc4)cc3F)c3c(N)ncnc32)C1)N1CCN(C2COC2)CC1 [rilzabrutinib, (R)-2-[3-[4-amino-3-(2-fluoro-4-phenoxy-phenyl)pyrazolo[3,4-d]pyrimidin-1-yl]piperidine-1-carbonyl]-4-methyl-4-[4-(oxetan-3-yl)piperazin-1-yl]pent-2-enenitrile]
UAS7 Percent change from baseline Mean (SD) [1]: −39.02 (NC) %
UAS7 Percent change from baseline Median [1]: −39.02%
Non-responder, UAS7 reduction from baseline of 10 points or more [2]: 26 (70.3) n (%)
OR for rilzabrutinib vs. placebo, UAS7 reduction of 10 points or more [2]: 1.510
RRD (%) for rilzabrutinib vs. placebo, UAS7 reduction of 10 points or more [2]: 8.2 %
Responder, UAS7 reduction from baseline of 10 points or more [2]: 11 (29.7) n (%)
Non-responder, UAS7 reduction from baseline of 10 points or more [3]: 18 (43.9) n (%)
OR for rilzabrutinib vs. placebo, UAS7 reduction of 10 points or more [3]: 4.196
RRD (%) for rilzabrutinib vs. placebo, UAS7 reduction of 10 points or more [3]: 32.5 %
Responder, UAS7 reduction from baseline of 10 points or more [3]: 23 (56.1) n (%)
UAS7 Change from baseline Mean (SD) [4]: −11.57 (10.61)
UAS7 Change from baseline Median [4]: −10.00
UAS7 Mean (SD) [4]: 17.77 (10.26)
UAS7 Median [4]: 18.00
UAS7 Percent change from baseline Mean (SD) [4]: −38.05 (33.56) %
UAS7 Percent change from baseline Median [4]: −30.95%
UAS7 Change from baseline Mean (SD) [5]: −20.86 (9.80)
UAS7 Change from baseline Median [5]: −21.00
UAS7 Mean (SD) [5]: 12.17 (8.54)
UAS7 Percent change from baseline Mean (SD) [5]: −63.75 (22.12) %
UAS7 Percent change from baseline Median [5]: −69.05%
Non-responder, UAS7 reduction from baseline of 10 points or more [6]: 17 (48.6) n (%)
OR for rilzabrutinib vs. placebo, UAS7 reduction of 10 points or more [6]: 3.580
RRD (%) for rilzabrutinib vs. placebo, UAS7 reduction of 10 points or more [6]: 28.5 %
Responder, UAS7 reduction from baseline of 10 points or more [6]: 18 (51.4) n (%)
Non-responder, UAS7 reduction from baseline of 10 points or more [7]: 19 (46.3) n (%)
OR for rilzabrutinib vs. placebo, UAS7 reduction of 10 points or more [7]: 3.388
RRD (%) for rilzabrutinib vs. placebo, UAS7 reduction of 10 points or more [7]: 27.8 %
Responder, UAS7 reduction from baseline of 10 points or more [7]: 22 (53.7) n (%)
UAS7 Change from baseline Mean (SD) [8]: −10.10 (8.61)
UAS7 Change from baseline Median [8]: −10.00
UAS7 Mean (SD) [8]: 19.59 (10.86)
UAS7 Median [8]: 18.10
UAS7 Percent change from baseline Mean (SD) [8]: −35.50 (31.03) %
UAS7 Percent change from baseline Median [8]: −35.71%
UAS7 Change from baseline Mean (SD) [9]: −14.00 (14.98)
UAS7 Change from baseline Median [9]: −10.00
UAS7 Mean (SD) [9]: 19.00 (13.67)
UAS7 Median [9]: 23.00
UAS7 Percent change from baseline Mean (SD) [9]: −40.50 (43.43) %
UAS7 Percent change from baseline Median [9]: −27.44%
Non-responder, UAS7 reduction from baseline of 10 points or more [10]: 17 (48.6) n (%)
OR for rilzabrutinib vs. placebo, UAS7 reduction of 10 points or more [10]: 3.686
RRD (%) for rilzabrutinib vs. placebo, UAS7 reduction of 10 points or more [10]: 28.9 %
Responder, UAS7 reduction from baseline of 10 points or more [10]: 18 (51.4) n (%)
Non-responder, UAS7 reduction from baseline of 10 points or more [11]: 23 (60.5) n (%)
OR for rilzabrutinib vs. placebo, UAS7 reduction of 10 points or more [11]: 2.169
RRD (%) for rilzabrutinib vs. placebo, UAS7 reduction of 10 points or more [11]: 16.6 %
Responder, UAS7 reduction from baseline of 10 points or more [11]: 15 (39.5) n (%)
UAS7 Change from baseline Mean (SD) [12]: −7.67 (8.84)
UAS7 Change from baseline Median [12]: −5.00
UAS7 Mean (SD) [12]: 23.44 (8.97)
UAS7 Median [12]: 23.00
UAS7 Percent change from baseline Mean (SD) [12]: −23.23 (26.34) %
UAS7 Percent change from baseline Median [12]: −16.67%
UAS7 Change from baseline Mean (SD) [13]: −19.00 (NC)
UAS7 Change from baseline Median [13]: −19.00
UAS7 Mean (SD) [13]: 22.00 (NC)
UAS7 Median [13]: 22.00
UAS7 Percent change from baseline Mean (SD) [13]: −46.34 (NC) %
UAS7 Percent change from baseline Median [13]: −46.34%
Non-responder, UAS7 reduction from baseline of 10 points or more [14]: 23 (62.2) n (%)
OR for rilzabrutinib vs. placebo, UAS7 reduction of 10 points or more [14]: 2.174
RRD (%) for rilzabrutinib vs. placebo, UAS7 reduction of 10 points or more [14]: 16.6 %
Responder, UAS7 reduction from baseline of 10 points or more [14]: 14 (37.8) n (%)
Non-responder, UAS7 reduction from baseline of 10 points or more (Week 2, 400 mg TID, ITT population): 13 (31.7) n (%)
